Key:
brain tissue = assay: Brain distribution of Cy5.5 fluorescence after icv infusion; format: in vivo; conditions: mice, 30 min after icv injection of 4 μg
Excerpt: Adult male C57B/6J mice (10-weeks old) were deeply anesthetized by inhalation of 4% isoflurane and anaesthesia was maintained with 2% isoflurane administered at 0.2 l/min through a nasal cone. Mice were secured in a stereotaxic frame and an incision made to expose the skull, which was cleaned with 6% hydrogen peroxide. Two 1 mm-diameter holes were drilled in the skull on either side of the sagittal midline, 3 mm posterior and 3 mm lateral to bregma, to allow small screws (3 mm long) to be secured in order to anchor the guide cannula in place. A third hole of 1 mm in diameter was drilled through the skull to allow implantation of a stainless-steel guide cannula (11 mm long, 24 gauge) just above the lateral ventricle at the coordinates relative to bregma: anterior-posterior −0.46 mm; medial-lateral −0.8 mm; dorsal-ventral −1.8 mm. The guide cannula and screws were fixed in place by application of self-curing acrylic dental cement (Vertex-Dental, the Netherlands). […]
Following peptide infusion, mice were placed back in their clear-walled home cages for 30 min with access to water (and food) and filmed through the side of the cage for subsequent assessment of behavior. […] Sections were viewed and images collected using a confocal laser scanning microscope, using laser light at λ of 633 nm, while light between λ of 650–750 nm was detected.

RXFP2 = target: T1, RXFP2 (Homo sapiens, UniProt Q8WXD0); assay: cAMP reporter gene assay (pCRE β-galactosidase); conditions: cell-based assay, HEK-293T RXFP2
T1 construct: expressed in transfected cells; host or cells: HEK-293T (co-transfected with pCRE β-galactosidase reporter)
Description: The ability of the Cy5.5-labeled insulin/relaxin family peptide analogs to stimulate cAMP production was evaluated using a cAMP reporter gene assay as described (Scott et al., [2006]). HEK-293T cells co-transfected with either RXFP1 or RXFP2 and a pCRE β-galactosidase reporter plasmid were plated in 96-well plates (Chen et al., [1995]). After 24 h, the co-transfected cells were incubated with increasing concentrations of relaxin analogs in parallel to 10 nM of H2 relaxin or INSL3 for RXFP1- or RXFP2- transfected cells, respectively. The amount of cAMP-driven β-galactosidase expression in each well was assessed with a colormetric assay measuring absorbance at 570 nm on a microplate spectrophotometer. Ligand-induced cAMP stimulation was expressed as a percentage of maximal response of H2 relaxin or INSL3 for RXFP1 and RXFP2 cells, respectively. Each data point was measured in triplicate and each experiment conducted independently at least three separate times. Statistical differences in pEC50 values were analyzed using One-Way ANOVA coupled to the Newman Keul's multiple comparison test for multiple group comparisons in GraphPad Prism 4.

[1] = test system: central RXFP1 activation (water drinking); assay: Drinking (dipsogenic) response after icv infusion; format: in vivo; conditions: adult male C57B/6J mice; single 4 μg dose icv in 4 μl aCSF; n = 3–4; observed 30 min
Excerpt: Adult male C57B/6J mice (10-weeks old) were deeply anesthetized by inhalation of 4% isoflurane and anaesthesia was maintained with 2% isoflurane administered at 0.2 l/min through a nasal cone. Mice were secured in a stereotaxic frame and an incision made to expose the skull, which was cleaned with 6% hydrogen peroxide. Two 1 mm-diameter holes were drilled in the skull on either side of the sagittal midline, 3 mm posterior and 3 mm lateral to bregma, to allow small screws (3 mm long) to be secured in order to anchor the guide cannula in place. A third hole of 1 mm in diameter was drilled through the skull to allow implantation of a stainless-steel guide cannula (11 mm long, 24 gauge) just above the lateral ventricle at the coordinates relative to bregma: anterior-posterior −0.46 mm; medial-lateral −0.8 mm; dorsal-ventral −1.8 mm. The guide cannula and screws were fixed in place by application of self-curing acrylic dental cement (Vertex-Dental, the Netherlands).
After 5–10 days recovery post-surgery, mice were gently restrained and an injector was inserted through the guide cannula which protruded 0.5 mm into the lateral ventricle. A single 4 μg dose of each peptide (n = 3–4) was delivered in 4 μ l of artificial CSF (aCSF; 147 mM NaCl, 4 mM KCl, 0.85 mM MgCl2, and 2.3 mM CaCl2), over 1 min via a 10 μ l syringe (0.46 mm diameter) mounted on an infusion pump connected to the injector via polyethylene tubing. Following infusion, the injector was left in place for a further 15 s to prevent backflow of the infused peptide up the guide cannula.
Following peptide infusion, mice were placed back in their clear-walled home cages for 30 min with access to water (and food) and filmed through the side of the cage for subsequent assessment of behavior. After 30 min, mice were killed by isoflurane inhalation overdose, decapitated, and brains were removed and “post-fixed” by immersion in chilled 4% PFA solution. […] Sections were viewed and images collected using a confocal laser scanning microscope, using laser light at λ of 633 nm, while light between λ of 650–750 nm was detected.

T1 sequence (Q8WXD0 whole entry, species assumed): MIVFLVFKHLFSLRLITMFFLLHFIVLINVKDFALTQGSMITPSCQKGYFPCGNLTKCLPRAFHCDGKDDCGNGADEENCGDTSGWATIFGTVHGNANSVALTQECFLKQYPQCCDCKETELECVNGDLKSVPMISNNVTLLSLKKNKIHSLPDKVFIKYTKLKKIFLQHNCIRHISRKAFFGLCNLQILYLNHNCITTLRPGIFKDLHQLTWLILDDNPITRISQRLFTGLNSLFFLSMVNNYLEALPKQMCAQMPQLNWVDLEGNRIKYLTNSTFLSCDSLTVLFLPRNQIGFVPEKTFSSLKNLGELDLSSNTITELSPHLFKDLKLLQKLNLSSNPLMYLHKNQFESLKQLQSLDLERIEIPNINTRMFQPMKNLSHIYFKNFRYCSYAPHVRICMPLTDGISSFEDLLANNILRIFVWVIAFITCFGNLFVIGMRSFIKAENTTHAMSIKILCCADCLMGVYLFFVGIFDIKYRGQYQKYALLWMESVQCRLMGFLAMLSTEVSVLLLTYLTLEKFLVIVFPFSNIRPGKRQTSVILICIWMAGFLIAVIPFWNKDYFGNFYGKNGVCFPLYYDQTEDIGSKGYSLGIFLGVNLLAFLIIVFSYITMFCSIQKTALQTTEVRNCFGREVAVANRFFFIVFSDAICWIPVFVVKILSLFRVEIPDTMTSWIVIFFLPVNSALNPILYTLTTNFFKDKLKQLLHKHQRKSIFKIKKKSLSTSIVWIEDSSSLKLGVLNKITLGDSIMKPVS

| Compound | Distance from the ventricle wall beyond which little or no Cy5.5 fluorescence was seen (brain tissue; confocal microscopy) [μm] | Distribution of Cy5.5 fluorescence in brain (in words) (brain tissue; confocal microscopy of 40 μm coronal sections) | Activation of RXFP2 (in words) (RXFP2) | Drinking behavior after icv infusion (in words) [1] |
| --- | --- | --- | --- | --- |
| CCCC[N+]1=C(C=CC=CC=C2N(CCCCCC(=O)NCCCn3cc(C[C@H](N)C(=O)N[C@@H](CC(=O)O)C(=O)N[C@@H](CO)C(=O)N[C@@H](Cc4c[nH]c5ccccc45)C(=O)N[C@@H](CCSC)C(=O)N[C@@H](CCC(=O)O)C(=O)N[C@@H](CCC(=O)O)C(=O)N[C@H](C(=O)N[C@H](C(=O)N[C@@H](CCCCN)C(=O)N[C@@H](CC(C)C)C(=O)N[C@H]4CSSC[C@@H]5NC(=O)[C@@H](NC(=O)[C@H](CCCCN)NC(=O)[C@H](CC(N)=O)NC(=O)[C@H](C)NC(=O)[C@H](CC(C)C)NC(=O)[C@H](C)NC(=O)[C@H](CO)NC(=O)[C@H](Cc6ccc(O)cc6)NC(=O)[C@H](CC(C)C)NC(=O)[C@@H]6CCC(=O)N6)CSSC[C@H](NC(=O)CNC(=O)[C@H](C(C)C)NC(=O)[C@H](Cc6c[nH]cn6)NC5=O)C(=O)N[C@@H]([C@@H](C)O)C(=O)N[C@@H](CCCCN)C(=O)N[C@@H](CCCNC(=N)N)C(=O)N[C@@H](CO)C(=O)N[C@@H](CC(C)C)C(=O)N[C@@H](C)C(=O)N[C@@H](CCCNC(=N)N)C(=O)N[C@@H](Cc5ccccc5)C(=O)N[C@H](C(=O)O)CSSC[C@@H](C(=O)NCC(=O)N[C@@H](CCSC)C(=O)N[C@@H](CO)C(=O)N[C@H](C(=O)N[C@@H](Cc5c[nH]c6ccccc56)C(=O)N[C@@H](CO)C(=O)O)[C@@H](C)O)NC(=O)[C@H]([C@@H](C)CC)NC(=O)[C@H](C)NC(=O)[C@H]([C@@H](C)CC)NC(=O)[C@H](CCC(N)=O)NC(=O)[C@H](C)NC(=O)[C@H](CCCNC(=N)N)NC(=O)[C@H](C(C)C)NC(=O)[C@H](CC(C)C)NC(=O)[C@H](CCC(=O)O)NC(=O)[C@H](CCCNC(=N)N)NC(=O)CNC4=O)[C@@H](C)CC)C(C)C)nn3)c3ccc4ccccc4c3C2(C)C)C(C)(C)c2c1ccc1ccccc21 [Cy5.5-H2 relaxin] | > 300 | high levels of Cy5.5 were present within the ventricle wall and brain tissue proximal to the major cerebral ventricles | activated | stimulated a similar increase in drinking behavior |
| CCCC[N+]1=C(C=CC=CC=C2N(CCCCCC(=O)NCCCn3cc(C[C@H](N)C(=O)N[C@@H](CC(=O)O)C(=O)N[C@@H](CO)C(=O)N[C@@H](Cc4c[nH]c5ccccc45)C(=O)N[C@@H](CCSC)C(=O)N[C@@H](CCC(=O)O)C(=O)N[C@@H](CCC(=O)O)C(=O)N[C@H](C(=O)N[C@H](C(=O)N[C@@H](CCCCN)C(=O)N[C@@H](CC(C)C)C(=O)N[C@H]4CSSC[C@@H]5NC(=O)[C@@H](NC(=O)[C@H](CCCCN)NC(=O)[C@H](CC(N)=O)NC(=O)[C@H](C)NC(=O)[C@H](CC(C)C)NC(=O)[C@H](C)NC(=O)[C@@H](N)CO)CSSC[C@H](NC(=O)CNC(=O)[C@H](C(C)C)NC(=O)[C@H](Cc6c[nH]cn6)NC5=O)C(=O)N[C@@H]([C@@H](C)O)C(=O)N[C@@H](CCCCN)C(=O)N[C@@H](CCCNC(=N)N)C(=O)N[C@@H](CO)C(=O)N[C@@H](CC(C)C)C(=O)N[C@@H](C)C(=O)N[C@@H](CCCNC(=N)N)C(=O)N[C@@H](C)C(=O)N[C@H](C(=O)O)CSSC[C@@H](C(=O)NCC(=O)N[C@@H](CCSC)C(=O)N[C@@H](CO)C(=O)N[C@H](C(=O)N[C@@H](Cc5c[nH]c6ccccc56)C(=O)N[C@@H](CO)C(=O)O)[C@@H](C)O)NC(=O)[C@H]([C@@H](C)CC)NC(=O)[C@H](C)NC(=O)[C@H]([C@@H](C)CC)NC(=O)[C@H](CCC(N)=O)NC(=O)[C@H](C)NC(=O)[C@H](CCCNC(=N)N)NC(=O)[C@H](C(C)C)NC(=O)[C@H](CC(C)C)NC(=O)[C@H](CCC(=O)O)NC(=O)[C@H](CCCNC(=N)N)NC(=O)CNC4=O)[C@@H](C)CC)C(C)C)nn3)c3ccc4ccccc4c3C2(C)C)C(C)(C)c2c1ccc1ccccc21 [Cy5.5-H2:A(4-24)(F23A)] |  |  |  | stimulated a similar increase in drinking behavior |
| CCCC[N+]1=C(C=CC=CC=C2N(CCCCCC(=O)NCCCn3cc(C[C@H](N)C(=O)N4CCC[C@H]4C(=O)N[C@H](C(=O)N4CCC[C@H]4C(=O)N[C@@H](CCC(=O)O)C(=O)N[C@@H](CCSC)C(=O)N[C@@H](CCCNC(=N)N)C(=O)N[C@@H](CCC(=O)O)C(=O)N[C@@H](CCCCN)C(=O)N[C@@H](CC(C)C)C(=O)N[C@H]4CSSC[C@@H]5NC(=O)[C@@H](NC(=O)[C@H](Cc6ccc(O)cc6)NC(=O)[C@H](CCCNC(=N)N)NC(=O)[C@H](C)NC(=O)[C@@H]6CCCN6C(=O)[C@H](CC(N)=O)NC(=O)[C@@H](NC(=O)[C@H](C)NC(=O)[C@H](C)NC(=O)[C@H](C)N)[C@@H](C)O)CSSC[C@H](NC(=O)CNC(=O)[C@H](CO)NC(=O)[C@H](CC(C)C)NC5=O)C(=O)N[C@@H]([C@@H](C)O)C(=O)N[C@@H](CCC(N)=O)C(=O)N[C@@H](CCC(N)=O)C(=O)N[C@@H](CC(=O)O)C(=O)N[C@@H](CC(C)C)C(=O)N[C@@H](CC(C)C)C(=O)N[C@@H]([C@@H](C)O)C(=O)N[C@@H](CC(C)C)C(=O)N[C@H](C(=O)N5CCC[C@H]5C(=O)N[C@@H](Cc5ccc(O)cc5)C(=O)O)CSSC[C@@H](C(=O)NCC(=O)NCC(=O)N5CCC[C@H]5C(=O)N[C@@H](CCCNC(=N)N)C(=O)N[C@@H](Cc5c[nH]c6ccccc56)C(=O)N[C@@H](CO)C(=O)N[C@H](C(=O)N[C@@H](CCC(=O)O)C(=O)N[C@@H](C)C(=O)O)[C@@H](C)O)NC(=O)[C@H](C(C)C)NC(=O)[C@H](CCCNC(=N)N)NC(=O)[C@H](C(C)C)NC(=O)[C@H](CC(C)C)NC(=O)[C@H](C)NC(=O)[C@H](CCCNC(=N)N)NC(=O)[C@H](C(C)C)NC(=O)[C@H](Cc5ccccc5)NC(=O)[C@H](Cc5c[nH]cn5)NC(=O)[C@H](Cc5c[nH]cn5)NC(=O)CNC4=O)[C@@H](C)O)nn3)c3ccc4ccccc4c3C2(C)C)C(C)(C)c2c1ccc1ccccc21 [Cy5.5-INSL3] |  |  |  | did not initiate a drinking response |

Reference: PMC3982560, “Synthesis of fluorescent analogs of relaxin family peptides and their preliminary in vitro and in vivo characterization” (Frontiers in Chemistry, 2013)
